Assay results reported in patent publication US11130769B2 (Prelude Therapeutics Incorporated, priority 2018, dated 2021).
Read-outs that look alike come from different tables or passages of the source.

How the values were obtained:
[1] = rcm bond, DCE
MCL-1 = MCL-1 (Homo sapiens (Human), UniProt Q07820); assay: Cell free Mcl-1:Bim affinity assay (fluorescence polarization competition); format: binding; conditions: 15 nM MCL-1, 5 nM FITC-Bim, 1 hour at room temperature, read-out: BIM_Ki
In short: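 Fluorescence polarization competition: 10-point 3-fold compound dilutions displaced 5 nM FITC-Bim from 15 nM MCL-1 over 1 h at room temperature. Ki was derived from the fitted IC50 using the Nikolovska-Coleska equation, with percent inhibition normalized to DMSO and positive controls.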

H929 cells = assay: Cell viability assay (H929 10 FBS); format: cell-based; conditions: read-out: H929_10FBS IC50
In short: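 ATP-based luminescence (CellTiter-Glo or ATPlite 1 Step, 30-60 min at RT) gauged viability of H929 myeloma cells after 24 h compound treatment at 37 °C. Cells plated at 4000 per well in 10% FBS RPMI 1640 supplemented with pyruvate, HEPES and glucose.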

[2] = from C=CCN(C(=O)OC(C)(C)C)[C@H](C)C(=O)NS(=O)(=O)c1ccc2c(c1)N(C[C@@H]1CC[C@H]1[C@@H](O)C=C)C[C@@]1(CCCc3cc(Cl)ccc31)CO2, 16-membered ring, Zhan Catalyst 1B, 1.8 mM, 40.0 °C, 3.0 h
[3] = from C=CC(C)OC(C)(C)C(=O)NS(=O)(=O)c1ccc2c(c1)N(C[C@@H]1CC[C@H]1[C@@H](O)C=C)C[C@@]1(CCCc3cc(Cl)ccc31)CO2, 16-membered ring, Zhan catalyst, 2.1 mM, 45.0 °C, 2.0 h
[4] = Homo sapiens, NCI-H929, 24 hours

Chain of MCL-1 (Q07820 whole entry): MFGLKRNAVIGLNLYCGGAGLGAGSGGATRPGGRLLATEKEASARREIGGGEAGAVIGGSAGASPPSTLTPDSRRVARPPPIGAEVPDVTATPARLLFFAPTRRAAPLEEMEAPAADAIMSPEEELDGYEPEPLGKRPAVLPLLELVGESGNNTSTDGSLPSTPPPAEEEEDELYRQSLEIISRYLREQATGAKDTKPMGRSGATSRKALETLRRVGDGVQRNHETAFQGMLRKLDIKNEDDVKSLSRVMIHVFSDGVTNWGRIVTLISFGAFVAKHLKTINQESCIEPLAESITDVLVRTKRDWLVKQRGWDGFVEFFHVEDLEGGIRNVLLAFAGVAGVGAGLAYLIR

Row | SMILES | Ki (MCL-1; class symbols) [nM] | IC50 (H929 cells; [4]) [nM] | further results
1 | O=C1NS(=O)(=O)c2ccc3c(c2)N(C[C@@H]2CC[C@H]2[C@@H](O)C=CCOC12CCC2)C[C@@]1(CCCc2cc(Cl)ccc21)CO3 | – | – | ring closure, isolated yield ([1]; from C=CCOC1(C(=O)NS(=O)(=O)c2ccc3c(c2)N(C[C@@H]2CC[C@H]2[C@@H](O)C=C)C[C@@]2(CCCc4cc(Cl)ccc42)CO3)CCC1, 16-membered ring, Hoveyda-Grubbs II, 1.46 mM, 40.0 °C, 2.0 h): 66.3%
2 | C[C@@H]1C(=O)NS(=O)(=O)c2ccc3c(c2)N(C[C@@H]2CC[C@H]2[C@@H](O)/C=C/CN1C(=O)OC(C)(C)C)C[C@@]1(CCCc2cc(Cl)ccc21)CO3 | – | – | ring closure, isolated yield [1, 2]: 44%
3 | CC(C)(C)OC(=O)N1CC=C[C@H](O)[C@@H]2CC[C@H]2CN2C[C@@]3(CCCc4cc(Cl)ccc43)COc3ccc(cc32)S(=O)(=O)NC(=O)C12CCC2 | – | – | ring closure, isolated yield ([1]; from C=CCN(C(=O)OC(C)(C)C)C1(C(=O)NS(=O)(=O)c2ccc3c(c2)N(C[C@@H]2CC[C@H]2[C@@H](O)C=C)C[C@@]2(CCCc4cc(Cl)ccc42)CO3)CCC1, 16-membered ring, Zhan Catalyst II (resin supported), 1.0 mM, 60.0 °C, 3.0 h): 93%
4 | CO[C@@H]1C=CCN(C(=O)OC(C)(C)C)CC2(CCC2)C(=O)NS(=O)(=O)c2ccc3c(c2)N(C[C@@H]2CC[C@H]21)C[C@@]1(CCCc2cc(Cl)ccc21)CO3 | – | – | ring closure, isolated yield ([1]; from C=CCN(CC1(C(=O)NS(=O)(=O)c2ccc3c(c2)N(C[C@@H]2CC[C@H]2[C@@H](C=C)OC)C[C@@]2(CCCc4cc(Cl)ccc42)CO3)CCC1)C(=O)OC(C)(C)C, 17-membered ring, Hoveyda-Grubbs II, 2.6 mM, 16.0 h): 80%
5 | C[C@@H]1C(=O)NS(=O)(=O)c2ccc3c(c2)N(C[C@@H]2CC[C@H]2[C@@H](O)C=CCN1C(=O)OC(C)(C)C)C[C@@]1(CCCc2cc(Cl)ccc21)CO3 | – | – | ring closure, isolated yield [1, 2]: 36%
6 | CC1/C=C/[C@H](O)[C@@H]2CC[C@H]2CN2C[C@@]3(CCCc4cc(Cl)ccc43)COc3ccc(cc32)S(=O)(=O)NC(=O)C(C)(C)O1 (stereo partly drawn) | – | – | ring closure, isolated yield [1, 3]: 62.4%
7 | CO[C@@H]1/C=C\CCC2(CC2)C(=O)NS(=O)(=O)c2ccc3c(c2)N(C[C@@H]2CC[C@H]21)C[C@@]1(CCCc2cc(Cl)ccc21)CO3 [Example 70, (3R,6R,7R,8Z,22S)-6′-chloro-7-methoxy-12,12-ethylene-15,15-dioxo-spiro[20-oxa-15-thia-1,14-diazatetracyclo[14.7.2.03,6.019,24]pentacosa[8,16(25),17,19(24)]tetraene-22,1′-tetralin]-13-one] | 1 to 100 | – | IC50 (H929 cells; 24 hours): > 1000 nM
8 | CC1/C=C\[C@H](O)[C@@H]2CC[C@H]2CN2C[C@@]3(CCCc4cc(Cl)ccc43)COc3ccc(cc32)S(=O)(=O)NC(=O)C(C)(C)O1 (stereo partly drawn) | – | – | ring closure, isolated yield [1, 3]: 15.2%
9 | CC(=O)NS(=O)(=O)c1ccc2c(c1)N(CC1CC1)CC1(CCCc3cc(Cl)ccc31)CO2 (stereo not drawn) [Example 2, N-[6′-Chloro-5-(cyclopropylmethyl)spiro[2,4-dihydro-1,5-benzoxazepine-3,1′-tetralin]-7-yl]sulfonylacetamide] | – | > 1000 | Ki (MCL-1; numeric values): 179 nM

Continued, in another order:

Row | Ki (MCL-1; class symbols) [nM] | IC50 (H929 cells; [4]) [nM] | SMILES | further results
10 | < 1 | < 500 | COCCN1CCN(C(=O)O[C@H]2/C=C/COC(C)(C)C(=O)NS(=O)(=O)c3ccc4c(c3)N(C[C@@H]3CC[C@H]32)C[C@@]2(CCCc3cc(Cl)ccc32)CO4)CC1 [Example 46, [(3R,6R,7S,8E,22S)-6′-Chloro-12,12-dimethyl-13,15,15-trioxo-spiro[11,20-dioxa-15-thia-1,14-diazatetracyclo[14.7.2.03,6.019,24]pentacosa-8,16,18,24-tetraene-22,1′-tetralin]-7-yl] 4-(2-methoxyethyl)piperazine-1-carboxylate] | –
11 | 1 to 100 | > 1000 | CO[C@@H]1/C=C/CC[C@@H](C)C(=O)NS(=O)(=O)c2ccc3c(c2)N(C[C@@H]2CC[C@H]21)C[C@@]1(CCCc2cc(Cl)ccc21)CO3 [Example 72, (3R,6R,7R,8E,12R,22S)-6′-Chloro-7-methoxy-12-methyl-15,15-dioxo-spiro[20-oxa-15-thia-1,14-diazatetracyclo[14.7.2.03,6.019,24]pentacosa-8,16(25),17,19(24)-tetraene-22,1′-tetralin]-13-one] | –
12 | < 1 | > 1000 | COC[C@@H]1CC/C=C/[C@@H](OC)[C@@H]2CC[C@H]2CN2C[C@@]3(CCCc4cc(Cl)ccc43)COc3ccc(cc32)S(=O)(=O)NC1=O [Example 96, (3R,6R,7R,8E,12S,22S)-6′-Chloro-12-(methoxymethyl)-7-methoxy-15,15-dioxo-spiro[20-oxa-15-thia-1,14-diazatetracyclo[14.7.2.03,6.019,24]pentacosa-8,16,18,24-tetraene-22,1′-tetralin]-13-one] | –
13 | 1 to 100 | < 500 | O=C1Cn2ccc(n2)CC(=O)N2CCC(C2)CN2C[C@@]3(CCCc4cc(Cl)ccc43)COc3ccc(cc32)S(=O)(=O)N1 (stereo partly drawn) [Example 296, (23S)-6′-Chloro-16,16-dioxo-spiro[21-oxa-16-thia-1,6,12,15,27-pentazapentacyclo[15.7.2.13,6.19,12.020,25]octacosa-9(27),10,17,19,25-pentaene-23,1′-tetralin]-7,14-dione] | –
14 | < 1 | < 1000 | CN(C(=O)O[C@H]1/C=C/COC(C)(C)C(=O)NS(=O)(=O)c2ccc3c(c2)N(C[C@@H]2CC[C@H]21)C[C@]1(CO3)OCCc2cc(Cl)ccc21)[C@@H]1CCOC1 [Example 299, [(3R,6R,7S,8E,22R)-6′-Chloro-12,12-dimethyl-13,15,15-trioxo-spiro[11,20-dioxa-15-thia-1,14-diazatetracyclo[14.7.2.03,6.019,24]pentacosa-8,16,18,24-tetraene-22,1′-isochromane]-7-yl] N-methyl-N-[(3R)-tetrahydrofuran-3-yl]carbamate] | –
15 | < 1 | < 500 | COC1CN(C(=O)O[C@H]2/C=C/COC(C)(C)C(=O)NS(=O)(=O)c3ccc4c(c3)N(C[C@@H]3CC[C@H]32)C[C@@]2(CCCc3cc(Cl)ccc32)CO4)C1 [Example 56, [(3R,6R,7S,8E,22S)-6′-Chloro-12,12-dimethyl-13,15,15-trioxo-spiro[11,20-dioxa-15-thia-1,14-diazatetracyclo[14.7.2.03,6.019,24]pentacosa-8,16,18,24-tetraene-22,1′-tetralin]-7-yl] 3-methoxyazetidine-1-carboxylate] | –
16 | 1 to 100 | > 1000 | CN(C)C(=O)O[C@H]1/C=C\COC(C)(C)C(=O)NS(=O)(=O)c2ccc3c(c2)N(C[C@@H]2CC[C@H]21)C[C@@]1(CCCc2cc(Cl)ccc21)CO3 [Example 35, [(3R,6R,7S,8Z,22S)-6′-Chloro-12,12-dimethyl-13,15,15-trioxo-spiro[11,20-dioxa-15-thia-1,14-diazatetracyclo[14.7.2.03,6.019,24]pentacosa-8,16,18,24-tetraene-22,1′-tetralin]-7-yl] N,N-dimethylcarbamate] | –
17 | < 1 | < 500 | CC(C)N1CCN(C(=O)O[C@H]2/C=C/COC(C)(C)C(=O)NS(=O)(=O)c3ccc4c(c3)N(C[C@@H]3CC[C@H]32)C[C@@]2(CCCc3cc(Cl)ccc32)CO4)CC1 [Example 186, [(3R,6R,7S,8E,22S)-6′-Chloro-12,12-dimethyl-13,15,15-trioxo-spiro[11,20-dioxa-15-thia-1,14-diazatetracyclo[14.7.2.03,6.019,24]pentacosa-8,16,18,24-tetraene-22,1′-tetralin]-7-yl] 4-isopropylpiperazine-1-carboxylate] | –
18 | < 1 | < 1000 | CN(C)C(=O)O[C@@H]1/C=C/COC2(CC2)C(=O)NS(=O)(=O)c2ccc3c(c2)N(C[C@@H]2CC[C@H]21)C[C@@]1(CCCc2cc(Cl)ccc21)CO3 [Example 39, [(3R,6R,7R,8E,22S)-6′-Chloro-12,12-ethylene-13,15,15-trioxo-spiro[11,20-dioxa-15-thia-1,14-diazatetracyclo[14.7.2.03,6.019,24]pentacosa-8,16,18,24-tetraene-22,1′-tetralin]-7-yl] N,N-dimethylcarbamate] | –
19 | < 1 | < 500 | CN(C)C(=O)CO[C@@H]1/C=C/COC2(CC2)C(=O)NS(=O)(=O)c2ccc3c(c2)N(C[C@@H]2CC[C@H]21)C[C@@]1(CCCc2cc(Cl)ccc21)CO3 [Example 143, 2-[(3R,6R,7R,8E,22S)-6′-Chloro-12,12-ethylene-13,15,15-trioxo-spiro[11,20-dioxa-15-thia-1,14-diazatetracyclo[14.7.2.03,6.019,24]pentacosa-8,16,18,24-tetraene-22,1′-tetralin]-7-yl]oxy-N,N-dimethyl-acetamide] | –
20 | < 1 | < 500 | CCN1C/C=C/[C@H](OC(=O)N2CC(N(C)C)C2)[C@@H]2CC[C@H]2CN2C[C@@]3(CCCc4cc(Cl)ccc43)COc3ccc(cc32)S(=O)(=O)NC(=O)C1(C)C [Example 224, [(3R,6R,7S,8E,22S)-6′-Chloro-11-ethyl-12,12-dimethyl-13,15,15-trioxo-spiro[20-oxa-15-thia-1,11,14-triazatetracyclo[14.7.2.03,6.019,24]pentacosa-8,16,18,24-tetraene-22,1′-tetralin]-7-yl] 3-(dimethylamino)azetidine-1-carboxylate] | –
